Measurements taken from ChEMBL document CHEMBL3885881, “DrugMatrix”.

Species on record: Rattus norvegicus
Experiment: DrugMatrix - Regimen: Daily Repeat
Type: toxicity, organism-based, Sprague-Dawley
Parameters: regimen Daily Repeat, gender Male, age 6-8 weeks
Settings: in vivo, po, route oral GAVAGE, […]; for ABSOLUTE BASOPHIL / ABSOLUTE EOSINOPHIL / ABSOLUTE LYMPHOCYTE / ABSOLUTE MONOCYTE / ABSOLUTE SEGMENTED NEUTROPHIL / BASOPHIL / EOSINOPHIL / ERYTHROCYTE COUNT / HEMATOCRIT / HEMOGLOBIN / LEUKOCYTE COUNT / LYMPHOCYTE / MEAN CORPUSCULAR HEMOGLOBIN / MEAN CORPUSCULAR HEMOGLOBIN CONCENTRATION / MEAN CORPUSCULAR VOLUME / MONOCYTE / NEUTROPHIL / NUCLEATED RED BLOOD CELLS / PLATELET COUNT: tissue Blood; for ALANINE AMINOTRANSFERASE / ALBUMIN / ALKALINE PHOSPHATASE / ASPARTATE AMINOTRANSFERASE / BLOOD UREA NITROGEN / CARBON DIOXIDE / CHLORIDE / CHOLESTEROL / CREATINE PHOSPHOKINASE / CREATININE / GLUCOSE / LACTATE DEHYDROGENASE / LIPASE / PHOSPHORUS / POTASSIUM / SODIUM / TOTAL BILIRUBIN / TOTAL PROTEIN / URIC ACID: tissue Plasma
[1] = 0 mg/kg, 72 h, dose level Control, time 3 day
[2] = 0 mg/kg, 120 h, dose level Control, time 5 day
[3] = 10 mg/kg, 72 h, dose level Low, time 3 day

In the case of `c1ccc2[nH]c(-c3cscn3)nc2c1` [THIABENDAZOLE], the “ABSOLUTE BASOPHIL” value [1] is reported as 0 CELLS/uL, the “ABSOLUTE EOSINOPHIL” value [1] is reported as 13.67 CELLS/uL and the “ABSOLUTE LYMPHOCYTE” value [1] is reported as 10069.5 CELLS/uL. The “ABSOLUTE MONOCYTE” value [1] was 50 CELLS/uL, the “ABSOLUTE SEGMENTED NEUTROPHIL” value [1] was 516.83 CELLS/uL and the BASOPHIL [1] was 0%. For the same compound, the EOSINOPHIL [1] was 0.17%, the “ERYTHROCYTE COUNT” value [1] was 5.44 x10E6/uL and the HEMATOCRIT [1] was 33.88%. For the same compound, the HEMOGLOBIN [1] was 13.23 G/DL, the “LEUKOCYTE COUNT” value [1] was 10.65 x10E3/uL and the LYMPHOCYTE [1] was 94.67%. The “MEAN CORPUSCULAR HEMOGLOBIN” value [1] was 24.37 pg, the “MEAN CORPUSCULAR HEMOGLOBIN CONCENTRATION” value [1] was 39.05 G/DL and the “MEAN CORPUSCULAR VOLUME” value [1] was 62.38 fL. The MONOCYTE [1] was 0.67%, the NEUTROPHIL [1] was 4.5% and the “NUCLEATED RED BLOOD CELLS” value [1] was 0.33 /100WBC. The “PLATELET COUNT” value [1] was 414.5 x10E3/uL, the “ALANINE AMINOTRANSFERASE” value [1] was 72 u/L and the ALBUMIN [1] was 3.75 G/DL. The “ALKALINE PHOSPHATASE” value [1] was 375 u/L, the “ASPARTATE AMINOTRANSFERASE” value [1] was 87.5 u/L and the “BLOOD UREA NITROGEN” value [1] was 14 mg/dL. The “CARBON DIOXIDE” value [1] was 27.5 mmol/L, the CHLORIDE [1] was 95.83 MEQ/L and the CHOLESTEROL [1] was 68.5 mg/dL. The “CREATINE PHOSPHOKINASE” value [1] was 284.33 u/L, the CREATININE [1] was 0.16 mg/dL and the GLUCOSE [1] was 156.67 mg/dL. The “LACTATE DEHYDROGENASE” value [1] was 101.83 u/L, the LIPASE [1] was 9.67 u/L and the PHOSPHORUS [1] was 10.33 mg/dL. For the same compound, the POTASSIUM [1] was 5.22 MEQ/L, the SODIUM [1] was 137.67 MEQ/L and the “TOTAL BILIRUBIN” value [1] was 0.13 mg/dL. The “TOTAL PROTEIN” value [1] was 5.43 G/DL, the “URIC ACID” value [1] was 0.8 mg/dL and the “ABSOLUTE BASOPHIL” value [2] was 0 CELLS/uL. The “ABSOLUTE EOSINOPHIL” value [2] was 20.67 CELLS/uL, the “ABSOLUTE LYMPHOCYTE” value [2] was 11518.33 CELLS/uL and the “ABSOLUTE MONOCYTE” value [2] was 47 CELLS/uL. The “ABSOLUTE SEGMENTED NEUTROPHIL” value [2] was 614 CELLS/uL, the BASOPHIL [2] was 0% and the EOSINOPHIL [2] was 0.17%. For the same compound, the “ERYTHROCYTE COUNT” value [2] was 5.61 x10E6/uL, the HEMATOCRIT [2] was 34.25% and the HEMOGLOBIN [2] was 13.38 G/DL. For the same compound, the “LEUKOCYTE COUNT” value [2] was 12.2 x10E3/uL, the LYMPHOCYTE [2] was 94.33% and the “MEAN CORPUSCULAR HEMOGLOBIN” value [2] was 23.83 pg. For the same compound, the “MEAN CORPUSCULAR HEMOGLOBIN CONCENTRATION” value [2] was 39.08 G/DL, the “MEAN CORPUSCULAR VOLUME” value [2] was 61.03 fL and the MONOCYTE [2] was 0.33%. For the same compound, the NEUTROPHIL [2] was 5.17%, the “NUCLEATED RED BLOOD CELLS” value [2] was 0 /100WBC and the “PLATELET COUNT” value [2] was 941.83 x10E3/uL. The “ALANINE AMINOTRANSFERASE” value [2] was 68.83 u/L, the ALBUMIN [2] was 4.12 G/DL and the “ALKALINE PHOSPHATASE” value [2] was 492.67 u/L. The “ASPARTATE AMINOTRANSFERASE” value [2] was 83.33 u/L, the “BLOOD UREA NITROGEN” value [2] was 14 mg/dL and the “CARBON DIOXIDE” value [2] was 37 mmol/L. The CHLORIDE [2] was 98.67 MEQ/L, the CHOLESTEROL [2] was 56.5 mg/dL and the “CREATINE PHOSPHOKINASE” value [2] was 167.33 u/L. The CREATININE [2] was 0.17 mg/dL, the GLUCOSE [2] was 157.5 mg/dL and the “LACTATE DEHYDROGENASE” value [2] was 104.83 u/L. For the same compound, the LIPASE [2] was 10 u/L, the PHOSPHORUS [2] was 10.43 mg/dL and the POTASSIUM [2] was 5.46 MEQ/L. The SODIUM [2] was 143.87 MEQ/L, the “TOTAL BILIRUBIN” value [2] was 0.17 mg/dL and the “TOTAL PROTEIN” value [2] was 5.72 G/DL. For the same compound, the “URIC ACID” value [2] was 0.85 mg/dL, the “ABSOLUTE BASOPHIL” value [3] was 0 CELLS/uL and the “ABSOLUTE EOSINOPHIL” value [3] was 0 CELLS/uL. For the same compound, the “ABSOLUTE LYMPHOCYTE” value [3] was 5878.33 CELLS/uL, the “ABSOLUTE MONOCYTE” value [3] was 47.67 CELLS/uL and the “ABSOLUTE SEGMENTED NEUTROPHIL” value [3] was 707.33 CELLS/uL. The BASOPHIL [3] was 0%, the EOSINOPHIL [3] was 0% and the “ERYTHROCYTE COUNT” value [3] was 5.01 x10E6/uL. The HEMATOCRIT [3] was 31.07%, the HEMOGLOBIN [3] was 12.3 G/DL and the “LEUKOCYTE COUNT” value [3] was 6.63 x10E3/uL. The LYMPHOCYTE [3] was 88.67%, the “MEAN CORPUSCULAR HEMOGLOBIN” value [3] was 24.73 pg and the “MEAN CORPUSCULAR HEMOGLOBIN CONCENTRATION” value [3] was 39.77 G/DL. The “MEAN CORPUSCULAR VOLUME” value [3] was 62.1 fL, the MONOCYTE [3] was 0.67% and the NEUTROPHIL [3] was 10.67%. The “NUCLEATED RED BLOOD CELLS” value [3] was 0 /100WBC, the “PLATELET COUNT” value [3] was 848.67 x10E3/uL and the “ALANINE AMINOTRANSFERASE” value [3] was 79.33 u/L. For the same compound, the ALBUMIN [3] was 3.7 G/DL, the “ALKALINE PHOSPHATASE” value [3] was 386.33 u/L and the “ASPARTATE AMINOTRANSFERASE” value [3] was 90.33 u/L. The “BLOOD UREA NITROGEN” value [3] was 13.33 mg/dL, the “CARBON DIOXIDE” value [3] was 25 mmol/L and the CHLORIDE [3] was 96 MEQ/L. The CHOLESTEROL [3] was 74 mg/dL, the “CREATINE PHOSPHOKINASE” value [3] was 147.33 u/L and the CREATININE [3] was 0.21 mg/dL. For the same compound, the GLUCOSE [3] was 143.33 mg/dL, the “LACTATE DEHYDROGENASE” value [3] was 107.33 u/L and the LIPASE [3] was 12.67 u/L. For the same compound, the PHOSPHORUS [3] was 10.57 mg/dL, the POTASSIUM [3] was 5.5 MEQ/L and the SODIUM [3] was 138.4 MEQ/L. The “TOTAL BILIRUBIN” value [3] was 0.13 mg/dL, the “TOTAL PROTEIN” value [3] was 5.33 G/DL and the “URIC ACID” value [3] was 0.87 mg/dL.
